Experimental data reported in ChEMBL document CHEMBL1201862, “PubChem BioAssay data set” (2004).
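Values below derive from 48-hour exposures of cells grown in 96-well plates, with endpoints linearly interpolated between the two concentrations bracketing the appropriate inhibition level. GI50: concentration for 50% inhibition of growth.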 The source made the active and inactive calls. Cut-off read from the data, not from the text of the source: active = GI50 up to about 1.1 µM and inactive = higher.

How the values were obtained:
Experiment in all cases: growth of human tumour cells (NCI), 48 h
[1] = test system: SF-295
[2] = test system: MDA-MB-435
[3] = test system: PC-3
[4] = test system: EKVX
[5] = test system: UACC-257
[6] = test system: LOX IMVI
[7] = test system: Malme-3M
[8] = test system: OVCAR-3
[9] = test system: CAKI-1
[10] = test system: SNB-75
[11] = test system: KM12
[12] = test system: MCF7
[13] = test system: HOP-62
[14] = test system: HOP-92
[15] = test system: BT-549
[16] = test system: 786-0
[17] = test system: SR
[18] = test system: M14
[19] = test system: MDA-MB-231
[20] = test system: A549

Row | SMILES | GI50 [1] | GI50 [2] | GI50 [3] | GI50 [4] | GI50 [5] | GI50 [6] | GI50 [7] | GI50 [8] | GI50 [9] | GI50 [10] | GI50 [11] | GI50 [12] | GI50 [13] | GI50 [14] | GI50 [15] | GI50 [16] | GI50 [17] | GI50 [18] | GI50 [19] | GI50 [20]
1 | CC(Oc1ccc(Cl)cc1Cl)C(=O)NN1C(=O)CC(=O)N(c2ccccc2)C1=S (stereo not given) | 43.4 µM (inactive) | 41.9 µM (inactive) | 40.5 µM (inactive) | 69.5 µM (inactive) | 74.6 µM (inactive) | 55 µM (inactive) | > 100 µM (inactive) | 42.5 µM (inactive) | 53.6 µM (inactive) | 54.1 µM (inactive) | 18.1 µM (inactive) | 35.5 µM (inactive) | 56.2 µM (inactive) | 24.9 µM (inactive) | 59.6 µM (inactive) | 60.3 µM (inactive) | 4.67 µM (inactive) | 73.3 µM (inactive) | 65.9 µM (inactive) | 47.6 µM (inactive)
2 | C[N+](C)([O-])CCC=C1c2ccccc2CCc2ccccc21 | 27.5 µM (inactive) | 15.7 µM (inactive) | 24.7 µM (inactive) | 24.8 µM (inactive) | 35.5 µM (inactive) | 1.14 µM (inactive) | 18.5 µM (inactive) | 23.6 µM (inactive) | 28.8 µM (inactive) | 29.3 µM (inactive) | 18.1 µM (inactive) | 19.9 µM (inactive) | 15.6 µM (inactive) | 25.5 µM (inactive) | 41.9 µM (inactive) | 4.79 µM (inactive) | 16.7 µM (inactive) | 31 µM (inactive) | 30.7 µM (inactive) | 28.1 µM (inactive)
3 | C=C1C(=O)O[C@@H]2[C@H]1C[C@H](I)[C@@]1(C)CC[C@H](O1)[C@](C)(I)CCCC(C)[C@@H]2O (stereo not given in full) | 16 µM (inactive) | 4.9 µM (inactive) | 6.03 µM (inactive) | 8.95 µM (inactive) | 6.1 µM (inactive) | 1.32 µM (inactive) | 2.48 µM (inactive) | 2.64 µM (inactive) | 1.96 µM (inactive) | 2.33 µM (inactive) | 9.04 µM (inactive) | 2.29 µM (inactive) | 19.4 µM (inactive) | 1.54 µM (inactive) | 7.23 µM (inactive) | 1.49 µM (inactive) | 2 µM (inactive) | 4.68 µM (inactive) | 4.22 µM (inactive) | 9.79 µM (inactive)
4 | CCCN(CCCCC(NC(C)=O)C(=O)NCc1ccccc1)C(=O)N(CCCl)N=O (stereo not given) | 20.9 µM (inactive) | > 100 µM (inactive) | 32.8 µM (inactive) | > 100 µM (inactive) | > 100 µM (inactive) | 22.9 µM (inactive) | > 100 µM (inactive) | > 100 µM (inactive) | > 79.8 µM (inactive) | 27.1 µM (inactive) | > 100 µM (inactive) | 40 µM (inactive) | 25.5 µM (inactive) | 43.8 µM (inactive) | 75.7 µM (inactive) | 2.33 µM (inactive) | 19.3 µM (inactive) | 59.6 µM (inactive) | > 100 µM (inactive) | 32.3 µM (inactive)
5 | CCOC(=O)C1(N)CCc2[nH][nH]c(=O)c2C1 (stereo not given) | > 100 µM (inactive) | > 100 µM (inactive) | > 100 µM (inactive) | > 100 µM (inactive) | > 100 µM (inactive) | > 100 µM (inactive) | > 100 µM (inactive) | > 100 µM (inactive) | > 100 µM (inactive) | > 100 µM (inactive) | > 100 µM (inactive) | > 100 µM (inactive) | > 100 µM (inactive) | > 100 µM (inactive) | > 100 µM (inactive) | > 100 µM (inactive) | > 100 µM (inactive) | > 100 µM (inactive) | > 100 µM (inactive) | > 100 µM (inactive)
6 | O=C(O[C@H]1CCN2C[C@H]3C[C@H](CN4C(=O)CCC[C@H]34)[C@@H]2C1)c1ccc(O)cc1 | > 100 µM (inactive) | > 100 µM (inactive) | > 100 µM (inactive) | > 100 µM (inactive) | > 100 µM (inactive) | > 100 µM (inactive) | > 100 µM (inactive) | > 100 µM (inactive) | > 100 µM (inactive) | > 100 µM (inactive) | > 100 µM (inactive) | > 100 µM (inactive) | > 100 µM (inactive) | > 100 µM (inactive) | > 100 µM (inactive) | > 100 µM (inactive) | > 100 µM (inactive) | > 100 µM (inactive) | > 100 µM (inactive) | > 100 µM (inactive)
7 | CC(=O)CC12NC(=O)N(C)N=C1N(C)C(=O)N(C)C2=O (stereo not given) | 27.4 µM (inactive) | 17 µM (inactive) | 30.8 µM (inactive) | > 100 µM (inactive) | 18.6 µM (inactive) | 19.8 µM (inactive) | 13.4 µM (inactive) | 34.8 µM (inactive) | > 100 µM (inactive) | 68.1 µM (inactive) | 52.8 µM (inactive) | 41.8 µM (inactive) | 51.6 µM (inactive) | 95.1 µM (inactive) | > 100 µM (inactive) | 91 µM (inactive) | 63.7 µM (inactive) | 73.5 µM (inactive) | 43 µM (inactive) | > 100 µM (inactive)
8 | Oc1cc(-c2cccc(F)c2)nc2cc3c(cc12)OCO3 | 0.102 µM (active) | 0.0112 µM (active) | 0.0473 µM (active) | 6.56 µM (inactive) | 0.0236 µM (active) | 0.0692 µM (active) | 0.0454 µM (active) | 0.0222 µM (active) | 0.0513 µM (active) | 0.0334 µM (active) | 0.0341 µM (active) | 0.108 µM (active) | 0.165 µM (active) | 0.272 µM (active) | 0.2 µM (active) | 0.0441 µM (active) | 0.0241 µM (active) | 0.0402 µM (active) | 0.141 µM (active) | 0.119 µM (active)
